Measured values published in ChEMBL document CHEMBL4602733 (J Med Chem, 2020).
Blank lines part the entries; values can stand above or below the compound they belong to.

Columns and labels:
Histamine H3 receptor [1] = target: T1, Histamine H3 receptor (Homo sapiens, UniProt Q9Y5N1); set-up: species or system Sf9
[2] = Chemical stability of the compound in pH 7.4 phosphate buffered saline at 200 uM incubated for 5 to 6 hrs in 96-well Primaria plates by RP-HPLC method; assay type: physicochemical; conditions: buffer, pH 7.4, 200 µM
[3] = Chemical stability of the compound in pH 7.4 phosphate buffered saline at 200 uM incubated for >= 1 hr in 1.5 mL microtubes by RP-HPLC method; assay type: physicochemical; conditions: buffer, pH 7.4, 1 h
[4] = Chemical stability of the compound in pH 7.4 phosphate buffered saline at 200 uM incubated for >= 1 hr in Sigmacote-treated 1.5 mL microtubes by RP-HPLC method; assay type: physicochemical; conditions: buffer, pH 7.4, 1 h
[5] = Drug uptake in wild-type HEK293T cells at 200 nM measured after 20 mins by confocal microscopic analysis; assay type: ADME, cell-based; conditions: human, hek-293t, 0.2 µM
Histamine H3 receptor [6] = target: T1, Histamine H3 receptor; test: Agonist activity at human H3R expressed in HEK293T-SP-FLAG-hH3R-CRE-CBR cells incubated for 5 hrs by luciferase reporter gene assay; assay type: functional, cell-based
[7] = Chemical stability of the compound in pH 7.4 phosphate buffered saline at 200 uM incubated for 5 to 6 hrs in white 96-well cellGrade plates by RP-HPLC method; assay type: physicochemical; conditions: buffer, pH 7.4, 200 µM
Histamine H3 receptor [8] = target: T1, Histamine H3 receptor; test: Binding affinity to human recombinant NLuc/GPCR-fused H3R expressed in HEK293T cells assessed as dissociation constant measured after 30 mins in presence of thioperamide by furimazine substrate based BRET assay; assay type: cell-based, HEK-293T
Histamine H3 receptor [9] = target: T1, Histamine H3 receptor; test: Binding affinity to human recombinant NLuc/GPCR-fused H3R expressed in HEK293T cells assessed as association rate constant measured after 30 mins by furimazine substrate based BRET assay; assay type: cell-based; conditions: HEK-293T
Histamine H3 receptor [10] = target: T1, Histamine H3 receptor; test: Binding affinity to human recombinant NLuc/GPCR-fused H3R expressed in HEK293T cells measured after 30 mins by furimazine substrate based BRET assay; assay type: cell-based, HEK-293T
Histamine H1 receptor = Histamine H1 receptor (Homo sapiens, UniProt P35367); test: Displacement of [3H]pyrilamine from human recombinant H1R expressed in baculovirus infected Sf9 insect cell membranes co-expressing RGS4
Chain of Histamine H1 receptor (P35367 whole entry, the tested form may be a part): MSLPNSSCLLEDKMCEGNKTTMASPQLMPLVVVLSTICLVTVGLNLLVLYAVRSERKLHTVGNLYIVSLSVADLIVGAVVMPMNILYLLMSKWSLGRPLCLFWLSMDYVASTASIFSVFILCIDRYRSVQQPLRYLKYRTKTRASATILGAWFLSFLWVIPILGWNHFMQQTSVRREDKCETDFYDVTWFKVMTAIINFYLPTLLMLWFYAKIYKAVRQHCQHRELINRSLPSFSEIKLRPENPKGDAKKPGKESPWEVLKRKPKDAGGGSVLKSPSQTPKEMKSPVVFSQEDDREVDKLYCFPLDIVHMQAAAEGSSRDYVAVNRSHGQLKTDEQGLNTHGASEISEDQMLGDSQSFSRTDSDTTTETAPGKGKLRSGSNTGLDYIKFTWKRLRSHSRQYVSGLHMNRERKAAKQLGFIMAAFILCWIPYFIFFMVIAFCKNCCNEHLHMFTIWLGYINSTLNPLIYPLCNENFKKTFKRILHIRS

Histamine H3 receptor [11] = target: T1, Histamine H3 receptor; test: Binding affinity to human recombinant NLuc/GPCR-fused H3R expressed in HEK293T cells assessed as dissociation half life measured after 30 mins in presence of thioperamide by furimazine substrate based BRET assay; assay type: cell-based; conditions: HEK-293T
Histamine H3 receptor [12] = target: T1, Histamine H3 receptor; test: Binding affinity to human recombinant NLuc/GPCR-fused H3R expressed in HEK293T cells assessed as dissociation rate constant measured after 30 mins in presence of thioperamide by furimazine substrate based BRET assay; assay type: cell-based; conditions: HEK-293T
Histamine H4 receptor [13] = target: T2, Histamine H4 receptor (Homo sapiens, UniProt Q9H3N8); set-up: species or system Sf9
Homo sapiens = organism: Homo sapiens; set-up: reference not given here
Histamine H4 receptor [14] = target: T2, Histamine H4 receptor; test: Inhibition of UR-DEBa242 binding to human recombinant NLuc/GPCR-fused H4R expressed in HEK293T cells measured after 30 mins by furimazine substrate based BRET assay; assay type: cell-based, HEK-293T
Histamine H4 receptor [15] = target: T3, Histamine H4 receptor (Mus musculus, UniProt Q91ZY2); test: Displacement of UR-DEBa176 from mouse recombinant H4R expressed in HEK293T-SF-His6-CRE-Luc cells; assay type: cell-based
T3 sequence (Q91ZY2 whole entry): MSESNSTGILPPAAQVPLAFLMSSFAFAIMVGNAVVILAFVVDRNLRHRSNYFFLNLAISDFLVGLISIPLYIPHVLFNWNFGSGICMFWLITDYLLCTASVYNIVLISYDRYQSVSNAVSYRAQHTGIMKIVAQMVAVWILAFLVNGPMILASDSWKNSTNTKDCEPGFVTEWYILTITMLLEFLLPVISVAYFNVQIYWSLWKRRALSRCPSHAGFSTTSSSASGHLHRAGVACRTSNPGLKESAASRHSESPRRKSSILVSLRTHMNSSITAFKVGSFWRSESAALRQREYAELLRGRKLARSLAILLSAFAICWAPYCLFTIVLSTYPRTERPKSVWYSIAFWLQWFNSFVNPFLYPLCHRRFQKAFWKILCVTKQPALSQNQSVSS

Histamine H4 receptor [16] = target: T2, Histamine H4 receptor
Histamine H4 receptor [17] = target: T3, Histamine H4 receptor; test: Inhibition of UR-DEBa242 binding to mouse recombinant NLuc/GPCR-fused H4R expressed in HEK293T cells measured after 30 mins by furimazine substrate based BRET assay; assay type: cell-based, HEK-293T
Histamine H3 receptor [18] = target: T1, Histamine H3 receptor; set-up: species or system Sf9; remark: listed apart in the source
Histamine H4 receptor [19] = target: T2, Histamine H4 receptor; set-up: species or system Sf9; remark: listed apart in the source
Histamine H3 receptor [20] = target: T1, Histamine H3 receptor; test: Antagonist activity at human H3R expressed in HEK293T-SP-FLAG-hH3R-CRE-CBR cells assessed as reduction in histamine-induced inhibition of forskolin stimulated luciferase activity preincubated for 15 mins followed by forskolin and histamine addition by luciferase reporter gene assay; assay type: functional, cell-based
Histamine H3 receptor [21] = target: T1, Histamine H3 receptor; test: Inhibition of UR-DEBa242 binding to human recombinant NLuc/GPCR-fused H3R expressed in HEK293T cells measured after 30 mins by furimazine substrate based BRET assay; assay type: cell-based, HEK-293T
Histamine H3 receptor [22] = target: T1, Histamine H3 receptor; set-up: species or system Sf9; remark: listed apart in the source
Histamine H4 receptor [23] = target: T3, Histamine H4 receptor; test: Antagonist activity at mouse H4R expressed in HEK293 cells co-expressing ELucC/ELucN-beta-arrestin2 assessed as inhibition of histamine-induced beta-arrestin recruitment preincubated for 15 mins followed by histamine addition by luciferase reporter gene assay; assay type: cell-based

T1 sequence (Q9Y5N1 whole entry): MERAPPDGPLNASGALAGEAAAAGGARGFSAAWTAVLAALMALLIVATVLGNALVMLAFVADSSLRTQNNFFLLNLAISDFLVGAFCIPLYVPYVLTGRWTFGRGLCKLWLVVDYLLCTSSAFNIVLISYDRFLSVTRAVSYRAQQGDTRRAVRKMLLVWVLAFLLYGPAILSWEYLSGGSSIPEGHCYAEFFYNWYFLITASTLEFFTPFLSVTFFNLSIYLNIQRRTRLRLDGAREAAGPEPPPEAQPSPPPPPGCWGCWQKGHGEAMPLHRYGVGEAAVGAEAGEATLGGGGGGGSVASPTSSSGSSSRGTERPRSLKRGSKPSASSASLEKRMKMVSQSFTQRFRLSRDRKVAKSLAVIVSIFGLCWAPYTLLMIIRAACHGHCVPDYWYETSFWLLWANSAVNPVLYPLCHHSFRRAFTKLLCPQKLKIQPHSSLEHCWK

SMILES: NCCCCc1c[nH]cn1
Ratio Ki (Homo sapiens): 2.95

SMILES: NC(=NCc1ccc(Cl)cc1)SCCCc1cnc[nH]1 [CLOBENPROPIT]
Ki (Histamine H4 receptor [14]): 77.6 nM
Ki (Histamine H4 receptor [15]): 158 nM
Ki (Histamine H4 receptor [16]): 39.8 nM
Ki (Histamine H4 receptor [17]): 123 nM

SMILES: NCCCCCc1c[nH]cn1
Ki (Histamine H3 receptor [18]): 37.2 nM
Ki (Histamine H4 receptor [19]): 631 nM
Ratio Ki (Homo sapiens): 17

SMILES: Cc1cc(OCCCNC(=O)CCCCCN2\C(=C/C=C/C=C/C3=[N+](CCCCS(=O)(=O)[O-])c4ccccc4C3(C)C)C(C)(C)c3ccccc32)ccc1-c1nc2c(C)c(F)ccc2[nH]1
Ki (Histamine H3 receptor [1]): 2400 nM

SMILES: Cc1cc(OCCCNC(=O)CCCCCNC(=O)COc2ccc(/C=C/C3=[N+]4C(=Cc5ccc(-c6ccc[nH]6)n5[B-]4(F)F)C=C3)cc2)ccc1-c1nc2c(C)c(F)ccc2[nH]1
Ki (Histamine H4 receptor [13]): 1820 nM
Ki (Histamine H3 receptor [1]): 501 nM

SMILES: NCCCc1c[nH]cn1
Ki (Histamine H3 receptor [18]): 93.3 nM
Ratio Ki (Homo sapiens): 0.34

SMILES: S=C(NC1CCCCC1)N1CCC(c2cnc[nH]2)CC1 [THIOPERAMIDE]
EC50 (Histamine H4 receptor [23]): 28.2 nM
Ki (Histamine H4 receptor [15]): 79.4 nM
Ki (Histamine H4 receptor [17]): 66.1 nM

Further lines, results first:

Ki (Histamine H3 receptor [1]): 457 nM
SMILES: Cc1cc(/C=C/C=C/c2ccc(N(C)C)cc2)cc(C)[n+]1CCCN1CCc2nc[nH]c2C1

Ki (Histamine H3 receptor [1]): 1620 nM
SMILES: Cc1cc(OCCC[n+]2c(C)cc(/C=C/C=C/c3ccc(N(C)C)cc3)cc2C)ccc1-c1nc2c(C)c(F)ccc2[nH]1

Stability [2]: Stable
Stability [3]: Unstable
Stability [4]: Unstable
Drug uptake [5]: Active
EC50 (Histamine H3 receptor [6]): 1.7 nM
Stability [7]: Stable
Kd (Histamine H3 receptor [8]; read-out: Kd): 2.54 to 6.86 nM
Kd (Histamine H3 receptor [8]; read-out: pKd (converted)): 4.68 nM
K (Histamine H3 receptor [9]): 1.06e+07 M⁻¹ s⁻¹
Ki (Histamine H3 receptor [1]): 2.51 nM
Kd (Histamine H3 receptor [10]; read-out: Kd): 1.35 to 1.94 nM
Kd (Histamine H3 receptor [10]; read-out: pKd (converted)): 1.66 nM
Ki (Histamine H1 receptor): > 4790 nM
T1/2 (Histamine H3 receptor [11]): 15 s
K (Histamine H3 receptor [12]): 2.79 min⁻¹
SMILES: Cc1cc(/C=C/C=C/c2ccc(N(C)C)cc2)cc(C)[n+]1CCCCc1c[nH]cn1.O=C(O)C(F)(F)F.O=C([O-])C(F)(F)F

Ki (Histamine H4 receptor [13]): 933 nM
Ki (Histamine H3 receptor [1]): 13.5 nM
Ratio Ki (Homo sapiens): 69.2
SMILES: Cc1cc(/C=C/C=C/c2ccc(N(C)C)cc2)cc(C)[n+]1CCCNCCc1c[nH]cn1

Ki (Histamine H4 receptor [13]): 28200 nM
Ki (Histamine H3 receptor [1]): 20400 nM
SMILES: Cc1cc(OCCC[n+]2c(C)cc(/C=C/c3cc4c5c(c3)CCCN5CCC4)cc2C)ccc1-c1nc2c(C)c(F)ccc2[nH]1

Ki (Histamine H3 receptor [1]): 11.7 nM
SMILES: Cc1cc(/C=C/C=C/c2ccc(N(C)C)cc2)cc(C)[n+]1CCCc1c[nH]cn1

Ki (Histamine H4 receptor [13]): 1950 nM
Ki (Histamine H3 receptor [1]): 851 nM
Ratio Ki (Homo sapiens): 2.29
SMILES: Cc1cc(/C=C/C=C/c2ccc(N(C)C)cc2)cc(C)[n+]1CCc1c[nH]cn1

pK (Histamine H3 receptor [20]): 8.71
Ki (Histamine H3 receptor [1]): 0.912 nM
Kd (Histamine H3 receptor [10]; read-out: Kd): 0.97 nM
Kd (Histamine H3 receptor [10]; read-out: pKd (converted)): 1.15 nM
Ki (Histamine H1 receptor): > 4790 nM
SMILES: Cc1cc(/C=C/C=C/c2ccc(N(C)C)cc2)cc(C)[n+]1CCCCCc1c[nH]cn1

Ki (Histamine H3 receptor [21]): 0.537 nM
Ki (Histamine H3 receptor [22]): 3.16 nM
SMILES: CC(C)(C)CNc1nccc(N2CCc3nc[nH]c3C2)n1
